# Results published in the supplement of paper PMC10307832.
# Legend:
# Assay in all cases: relative viability (nuclei count vs DMSO), 5 days (fraction); higher = more cells survive
# 201T = tested on: 201T
# Outline: (§1)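 Five library-drug doses in √10 steps were combined with a fixed anchor-drug dose, or a single drug was given alone, by pin tool to lung cancer cell lines in 1536-well plates the day after seeding. Nuclei were stained and counted after 5 days. Relative viability is the nuclei count in treated wells over that in vehicle wells, taken as the median of duplicate plates.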
# A-427 = tested on: A-427
# Outline: as §1
# COR-L 105 = tested on: COR-L 105
# Outline: as §1
# COR-L23 = tested on: COR-L23
# Outline: as §1
# EKVX = tested on: EKVX
# Outline: as §1
# HARA = tested on: HARA
# Outline: as §1
# HCC-15 = tested on: HCC-15
# Outline: as §1
# HCC-44 = tested on: HCC-44
# Outline: as §1
# HCC-827 = tested on: HCC-827
# Outline: as §1
# LCLC-103H = tested on: LCLC-103H
# Outline: as §1
# LK-2 = tested on: LK-2
# Outline: as §1
# NCI-H1437 = tested on: NCI-H1437
# Outline: as §1
# NCI-H1666 = tested on: NCI-H1666
# Outline: as §1
# NCI-H1792 = tested on: NCI-H1792
# Outline: as §1
# NCI-H1975 = tested on: NCI-H1975
# Outline: as §1
# NCI-H23 = tested on: NCI-H23
# Outline: as §1
# NCI-H441 = tested on: NCI-H441
# Outline: as §1
# NCI-H520 = tested on: NCI-H520
# Outline: as §1
# NCI-H522 = tested on: NCI-H522
# Outline: as §1
# NCI-H596 = tested on: NCI-H596
# Outline: as §1
# NCI-H650 = tested on: NCI-H650
# Outline: as §1
# NCI-H838 = tested on: NCI-H838
# Outline: as §1
# SK-MES-1 = tested on: SK-MES-1
# Outline: as §1
# SW 900 = tested on: SW 900
# Outline: as §1
compound,measurement,setting,value
Clc1ccc(Nc2nnc(Cc3ccncc3)c3ccccc23)cc1 [Vatalanib] + Nc1ncn([C@H]2C[C@H](O)[C@@H](CO)O2)c(=O)n1 [Decitabine] (partner 2 µM),relative viability,201T; first compound 0.04 µM,0.832
same,relative viability,201T; first compound 0.1265 µM,0.85
same,relative viability,201T; first compound 0.4 µM,0.881
same,relative viability,201T; first compound 1.265 µM,0.867
same,relative viability,201T; first compound 4 µM,0.861
same,relative viability,A-427; first compound 0.04 µM,0.6
same,relative viability,A-427; first compound 0.1265 µM,0.544
same,relative viability,A-427; first compound 0.4 µM,0.601
same,relative viability,A-427; first compound 4 µM,0.535
same,relative viability,COR-L 105; first compound 0.04 µM,0.722
same,relative viability,COR-L 105; first compound 0.1265 µM,0.706
same,relative viability,COR-L 105; first compound 0.4 µM,0.796
same,relative viability,COR-L 105; first compound 1.265 µM,0.681
same,relative viability,COR-L 105; first compound 4 µM,0.714
same,relative viability,COR-L23; first compound 0.04 µM,0.503
same,relative viability,COR-L23; first compound 0.1265 µM,0.414
same,relative viability,COR-L23; first compound 0.4 µM,0.565
same,relative viability,COR-L23; first compound 1.265 µM,0.441
same,relative viability,COR-L23; first compound 4 µM,0.404
same,relative viability,EKVX; first compound 0.04 µM,0.41
same,relative viability,EKVX; first compound 0.1265 µM,0.346
same,relative viability,EKVX; first compound 0.4 µM,0.308
same,relative viability,EKVX; first compound 1.265 µM,0.338
same,relative viability,EKVX; first compound 4 µM,0.296
same,relative viability,HARA; first compound 0.04 µM,0.623
same,relative viability,HARA; first compound 0.1265 µM,0.446
same,relative viability,HARA; first compound 0.4 µM,0.463
same,relative viability,HARA; first compound 1.265 µM,0.526
same,relative viability,HARA; first compound 4 µM,0.521
same,relative viability,HCC-15; first compound 0.04 µM,0.607
same,relative viability,HCC-15; first compound 0.1265 µM,0.689
same,relative viability,HCC-15; first compound 0.4 µM,0.716
same,relative viability,HCC-15; first compound 1.265 µM,0.627
same,relative viability,HCC-15; first compound 4 µM,0.665
same,relative viability,HCC-44; first compound 0.04 µM,0.961
same,relative viability,HCC-44; first compound 0.1265 µM,0.944
same,relative viability,HCC-44; first compound 0.4 µM,0.976
same,relative viability,HCC-44; first compound 1.265 µM,0.906
same,relative viability,HCC-44; first compound 4 µM,0.961
same,relative viability,HCC-827; first compound 0.04 µM,0.28
same,relative viability,HCC-827; first compound 0.1265 µM,0.308
same,relative viability,HCC-827; first compound 1.265 µM,0.266
same,relative viability,HCC-827; first compound 4 µM,0.343
same,relative viability,LCLC-103H; first compound 0.04 µM,0.715
same,relative viability,LCLC-103H; first compound 0.1265 µM,0.722
same,relative viability,LCLC-103H; first compound 0.4 µM,0.759
same,relative viability,LCLC-103H; first compound 1.265 µM,0.71
same,relative viability,LCLC-103H; first compound 4 µM,0.725
same,relative viability,LK-2; first compound 0.04 µM,0.242
same,relative viability,LK-2; first compound 0.1265 µM,0.25
same,relative viability,LK-2; first compound 0.4 µM,0.297
same,relative viability,LK-2; first compound 1.265 µM,0.266
same,relative viability,LK-2; first compound 4 µM,0.319
same,relative viability,NCI-H1437; first compound 0.04 µM,0.53
same,relative viability,NCI-H1437; first compound 0.1265 µM,0.523
same,relative viability,NCI-H1437; first compound 0.4 µM,0.573
same,relative viability,NCI-H1437; first compound 1.265 µM,0.587
same,relative viability,NCI-H1437; first compound 4 µM,0.608
same,relative viability,NCI-H1666; first compound 0.04 µM,0.649
same,relative viability,NCI-H1666; first compound 0.1265 µM,0.755
same,relative viability,NCI-H1666; first compound 0.4 µM,0.593
same,relative viability,NCI-H1666; first compound 1.265 µM,0.672
same,relative viability,NCI-H1666; first compound 4 µM,0.785
same,relative viability,NCI-H1792; first compound 0.04 µM,0.614
same,relative viability,NCI-H1792; first compound 0.1265 µM,0.465
same,relative viability,NCI-H1792; first compound 0.4 µM,0.608
same,relative viability,NCI-H1792; first compound 1.265 µM,0.515
same,relative viability,NCI-H1792; first compound 4 µM,0.55
same,relative viability,NCI-H1975; first compound 0.04 µM,0.423
same,relative viability,NCI-H1975; first compound 0.1265 µM,0.378
same,relative viability,NCI-H1975; first compound 0.4 µM,0.401
same,relative viability,NCI-H1975; first compound 1.265 µM,0.391
same,relative viability,NCI-H1975; first compound 4 µM,0.397
same,relative viability,NCI-H23; first compound 0.04 µM,0.355
same,relative viability,NCI-H23; first compound 0.1265 µM,0.324
same,relative viability,NCI-H23; first compound 0.4 µM,0.314
same,relative viability,NCI-H23; first compound 1.265 µM,0.291
same,relative viability,NCI-H23; first compound 4 µM,0.348
same,relative viability,NCI-H441; first compound 0.04 µM,0.237
same,relative viability,NCI-H441; first compound 0.1265 µM,0.212
same,relative viability,NCI-H441; first compound 0.4 µM,0.206
same,relative viability,NCI-H441; first compound 1.265 µM,0.228
same,relative viability,NCI-H441; first compound 4 µM,0.242
same,relative viability,NCI-H520; first compound 0.04 µM,0.504
same,relative viability,NCI-H520; first compound 0.1265 µM,0.446
same,relative viability,NCI-H520; first compound 0.4 µM,0.581
same,relative viability,NCI-H520; first compound 1.265 µM,0.456
same,relative viability,NCI-H520; first compound 4 µM,0.529
same,relative viability,NCI-H522; first compound 0.04 µM,0.711
same,relative viability,NCI-H522; first compound 0.1265 µM,0.685
same,relative viability,NCI-H522; first compound 0.4 µM,0.698
same,relative viability,NCI-H522; first compound 1.265 µM,0.696
same,relative viability,NCI-H522; first compound 4 µM,0.596
same,relative viability,NCI-H596; first compound 0.04 µM,0.921
same,relative viability,NCI-H596; first compound 0.1265 µM,1.14
same,relative viability,NCI-H596; first compound 0.4 µM,1.22
same,relative viability,NCI-H596; first compound 1.265 µM,1.01
same,relative viability,NCI-H596; first compound 4 µM,1.02
same,relative viability,NCI-H650; first compound 0.04 µM,0.292
same,relative viability,NCI-H650; first compound 0.1265 µM,0.337
same,relative viability,NCI-H650; first compound 0.4 µM,0.306
same,relative viability,NCI-H650; first compound 1.265 µM,0.327
same,relative viability,NCI-H650; first compound 4 µM,0.334
same,relative viability,NCI-H838; first compound 0.04 µM,0.435
same,relative viability,NCI-H838; first compound 0.1265 µM,0.467
same,relative viability,NCI-H838; first compound 0.4 µM,0.441
same,relative viability,NCI-H838; first compound 1.265 µM,0.483
same,relative viability,NCI-H838; first compound 4 µM,0.448
same,relative viability,SK-MES-1; first compound 0.04 µM,0.358
same,relative viability,SK-MES-1; first compound 0.1265 µM,0.342
same,relative viability,SK-MES-1; first compound 0.4 µM,0.415
same,relative viability,SK-MES-1; first compound 1.265 µM,0.287
same,relative viability,SK-MES-1; first compound 4 µM,0.353
same,relative viability,SW 900; first compound 0.04 µM,0.421
same,relative viability,SW 900; first compound 0.1265 µM,0.457
same,relative viability,SW 900; first compound 0.4 µM,0.447
same,relative viability,SW 900; first compound 1.265 µM,0.423
same,relative viability,SW 900; first compound 4 µM,0.425
